Measurements: patent US20060111350A1, “Solid forms of linezolid and processes for preparation thereof” (priority 2004, published 2006)

Key:
[1] = Thermal stability of crystal forms upon heating (Table 4)
[2] = below about 85°; cited from earlier work
[3] = Stability and hygroscopicity of linezolid Form VI stored at 0-100% relative humidity; format: physicochemical
Procedure: The stability and hygroscopicity of linezolid Form VI was tested by storing it for 19 days at a relative humidity of between 0 and 100% at room temperature.

[4] = Stability of linezolid Form X stored at 0-100% relative humidity; format: physicochemical
Procedure: The stability of linezolid Form X was tested by storing it for 8 days at a relative humidity of between 0 and 100% at room temperature.

[5] = 19 days, room temperature, relative humidity 80%
[6] = 19 days, room temperature, relative humidity 100%
[7] = 8 days, room temperature, relative humidity 100%

In the case of CC(=O)NC[C@H]1CN(c2ccc(N3CCOCC3)c(F)c2)C(=O)O1 [Form V, (S)—N-[[3-[3-Fluoro-4-(4-morpholinyl)phenyl]-2-oxo-5-oxazo-lidinyl]methyl]-acetamide], the “Thermal stability (transformation into other forms upon heating)” value ([1]; heating at about 60° C. to about 130° C.) is reported as “thermally stable”.
For CC(=O)NC[C@H]1CN(c2ccc(N3CCOCC3)c(F)c2)C(=O)O1 [Form II], the “Relative stability of the crystal form” value [2] is listed as “most stable form”.
With CC(=O)NC[C@H]1CN(c2ccc(N3CCOCC3)c(F)c2)C(=O)O1 [Form TIII, (S)—N-[[3-[3-Fluoro-4-(4-morpholinyl)phenyl]-2-oxo-5-oxazo-lidinyl]methyl]-acetamide] the “Crystal form after heating” value ([1]; heating temp. 60 °C, listed as TIII) was “TIII” and the “Crystal form after heating” value ([1]; heating temp. 130 °C) was “TIII”.
CC(=O)NC[C@H]1CN(c2ccc(N3CCOCC3)c(F)c2)C(=O)O1 [Form VI, (S)—N-[[3-[3-Fluoro-4-(4-morpholinyl)phenyl]-2-oxo-5-oxazo-lidinyl]methyl]-acetamide] gave a Solvent content ([3]; 19 days, room temperature, relative humidity 0%) of 0.4%, a Solvent content ([3]; 19 days, room temperature, relative humidity 20%) of 0.4% and a Solvent content ([3]; 19 days, room temperature, relative humidity 40%) of 0.4%. For the same compound, the Solvent content ([3]; 19 days, room temperature, relative humidity 60%) was 0.3%, the “Crystal Form” value [3, 5] was “VI + Amorphous” and the Solvent content [3, 5] was 31.7%. The “Crystal Form” value [3, 6] was “Amorphous”, the Solvent content [3, 6] was 53.2% and the Solvent content ([3]; As is (before storage)) was 0.9%. For the same compound, the water content ([3]; As is (before storage)) was 0.7%, the Form conversion ([3]; at 80-100% RH) was “converts to Amorphous Linezolid” and the Stability and hygroscopicity ([3]; between 0-60% RH) was “stable and non-hygroscopic”. The Hygroscopicity ([3]; on high relative humidity) was “hygroscopic”.
In the case of CC(=O)NC[C@H]1CN(c2ccc(N3CCOCC3)c(F)c2)C(=O)O1 [Form X, (S)—N-[[3-[3-Fluoro-4-(4-morpholinyl)phenyl]-2-oxo-5-oxazo-lidinyl]methyl]-acetamide], the “Crystal form after heating” value ([1]; heating temp. 60 °C, listed as X) is reported as “Amorphous”, the Solvent content ([4]; 8 days, room temperature, relative humidity 0%) is reported as 1.6% and the Solvent content ([4]; 8 days, room temperature, relative humidity 20%) is reported as 1.5%. It also gave a Solvent content ([4]; 8 days, room temperature, relative humidity 40%) of 1.4%, a Solvent content ([4]; 8 days, room temperature, relative humidity 60%) of 2.0% and a Solvent content ([4]; 8 days, room temperature, relative humidity 80%) of 2.4%. For the same compound, the “Crystal Form” value [4, 7] was “Form X + II”, the Solvent content [4, 7] was 0.7% and the Solvent content ([4]; As is (before storage)) was 1.9 (water content 1.9) %. For the same compound, the water content ([4]; As is (before storage)) was 1.9 (water content 1.9) %, the Form conversion ([4]; at 100% RH) was “some of Form X converts to Form II” and the Stability ([4]; between 0-80% RH) was “stable”.
